Measured values taken from patent publication US20150111864A1, “CRYSTALLINE FORM OF A BETA-LACTAMASE INHIBITOR” (Cubist Pharmaceuticals, Inc., priority 2013, published 2015).

Assays:
[1] = test system: Eco.2711 (KPC, clinical); experiment: Standard BLI Potentiation MIC Assay in Combination with Ceftolozane; format: cell-based; conditions: Escherichia coli, read-out: MIC of Ceftolozane, No BLI
Protocol: (§1) The experimental protocol was performed according to Clinical and Laboratory Standards Institute (CLSI) guidelines with modifications as described below (CLSI guidelines can be derived from the CLSI document M07-A9 published in January 2012: “Methods for Dilution Antimicrobial Susceptibility Tests for Bacteria That Grow Aerobically; Approved Standard-Ninth Edition”).
(§2) Frozen glycerol stocks of laboratory engineered, isogenic E. coli strains, which contain cloned β-lactamase expressing plasmids were used to streak for isolated colonies on rich, selective LB agar supplemented with 25 μg/mL tetracycline to maintain the plasmid. All strains were incubated at 37° C. for 18-24 hrs.
(§3) On the day of testing, primary cultures were started by scraping off 5-10 colonies from the TSAB plates containing clinical strains or the tetracycline supplemented LB plates containing engineered strains. The clinical strain material was suspended in ˜5 mL of cation adjusted Mueller Hinton Broth (CAMHB) in 14 mL culture tubes. The engineered strain material was suspended in CAMHB (supplemented with 25 μg/mL tetracycline) in 14 mL culture tubes. All strains were incubated at 37° C. with aeration (200 rpm) for ˜2 hrs until the optical density at 600 nm (OD600) was ≧0.1.
(§4) The two compound components of the assay were each diluted in CAMHB and added to the 96-well broth microdilution assay plates. 50 μL of the β-lactam was added to each well of the assay plate in 2-fold dilutions with final concentrations ranging from 128 to 0.13 μg/mL. 25 μL of the BLI compound was added to all wells in the broth microdilution plates at a final concentration of 4 μg/mL. Inoculum cultures were prepared by standardizing the primary cultures to OD600=0.1 and then adding 20 μL of the adjusted primary culture per 1 mL CAMHB for clinical strains or CAMHB (supplemented with tetracycline at 100 μg/mL) for engineered strains, so that the final inoculum density was ˜10^5 colony forming units per milliliter. Diluted inoculum cultures were used to inoculate 25 μL per well in 96-well broth microdilution assay plates.

[2] = test system: Kpn.2917 (KPC-2, SHV+, clinical); experiment: as above; format: cell-based; conditions: Klebsiella pneumoniae, read-out: MIC of Ceftolozane, No BLI
Protocol: as §1, §2, §3, §4

[3] = test system: Kpn.2913 (KPC-2, SHV+, clinical); experiment: as above; format: cell-based; conditions: Klebsiella pneumoniae, read-out: MIC of Ceftolozane, No BLI
Protocol: as §1, §2, §3, §4

[4] = test system: Kpn.2914 (KPC-2, SHV+, clinical); experiment: as above; format: cell-based; conditions: Klebsiella pneumoniae, read-out: MIC of Ceftolozane, No BLI
Protocol: as §1, §2, §3, §4

[5] = test system: Kpn.2909 (KPC-3, SHV+, TEM+, clinical); experiment: as above; format: cell-based; conditions: Klebsiella pneumoniae, read-out: MIC of Ceftolozane, No BLI
Protocol: as §1, §2, §3, §4

[6] = test system: Kpn.2783 (CTX-M-15, SHV+, TEM+, clinical); experiment: as above; format: cell-based; conditions: Klebsiella pneumoniae, read-out: MIC of Ceftolozane, No BLI
Protocol: as §1, §2, §3, §4

[7] = test system: Kpn.571 (TEM-26, clinical); experiment: as above; format: cell-based; conditions: Klebsiella pneumoniae, read-out: MIC of Ceftolozane, No BLI
Protocol: as §1, §2, §3, §4

[8] = test system: Eco.2840 (KPC-4, isogenic); experiment: as above; format: cell-based; conditions: Escherichia coli, read-out: MIC of Ceftolozane, No BLI
Protocol: as §1, §2, §3, §4

[9] = test system: Eco.2806 (KPC-2, isogenic); experiment: as above; format: cell-based; conditions: Escherichia coli, read-out: MIC of Ceftolozane, No BLI
Protocol: as §1, §2, §3, §4

[10] = test system: Kpn.2926 (CTX-M-15, OXA-48, clinical); experiment: as above; format: cell-based; conditions: Klebsiella pneumoniae, read-out: MIC of Ceftolozane, No BLI
Protocol: as §1, §2, §3, §4

[11] = test system: Kpn.2918 (KPC-3, SHV+, TEM+, clinical); experiment: as above; format: cell-based; conditions: Klebsiella pneumoniae, read-out: MIC of Ceftolozane, No BLI
Protocol: as §1, §2, §3, §4

[12] = test system: Kpn.2490 (KPC-3, SHV+, TEM+, clinical); experiment: as above; format: cell-based; conditions: Klebsiella pneumoniae, read-out: MIC of Ceftolozane, No BLI
Protocol: as §1, §2, §3, §4

[13] = test system: Eco.2781 (KPC-2, TEM+, clinical); experiment: as above; format: cell-based; conditions: Escherichia coli, read-out: MIC of Ceftolozane, No BLI
Protocol: as §1, §2, §3, §4

[14] = test system: Kpn.2478 (KPC-3, TEM+, clinical); experiment: as above; format: cell-based; conditions: Klebsiella pneumoniae, read-out: MIC of Ceftolozane, No BLI
Protocol: as §1, §2, §3, §4

[15] = test system: Pae.2808 (KPC-2, clinical); experiment: as above; format: cell-based; conditions: Pseudomonas aeruginosa, read-out: MIC of Ceftolozane, No BLI
Protocol: as §1, §2, §3, §4

[16] = test system: Cfr.568 (AmpC, clinical); experiment: as above; format: cell-based, Citrobacter spp; conditions: Citrobacter, read-out: MIC of Ceftolozane, No BLI
Protocol: as §1, §2
(§5) On the day of testing, primary cultures were started by scraping off 5-10 colonies from the TSAB plates containing clinical strains or the tetracycline supplemented LB plates containing engineered strains. […]
(§6) Plates were incubated for 18-20 hours at 37° C. with aeration (200 rpm). Following incubation, growth was confirmed visually placing plates over a viewing apparatus (stand with a mirror underneath) and then OD600 was measured using a SpectraMax 340PC384 plate reader (Molecular Devices, Sunnyvale, Calif.). Growth was defined as turbidity that could be detected with the naked eye or achieving minimum OD600 of 0.1. […]

[17] = test system: Eco.2843 (DHA-1, isogenic); experiment: as above; format: cell-based, Escherichia coli; conditions: Escherichia coli, read-out: MIC of Ceftolozane, No BLI
Protocol: as §1, §2, §3
(§7) The two compound components of the assay were each diluted in CAMHB and added to the 96-well broth microdilution assay plates. 50 μL of the β-lactam was added to each well of the assay plate in 2-fold dilutions with final concentrations ranging from 128 to 0.13 μg/mL. 25 μL of the BLI compound was added to all wells in the broth microdilution plates at a final concentration of 4 μg/mL. Inoculum cultures were prepared by standardizing the primary cultures to OD600=0.1 and then adding 20 μL of the adjusted primary culture per 1 mL CAMHB for clinical strains or CAMHB (supplemented with tetracycline at 100 μg/mL) for engineered strains, so that the final inoculum density was ˜10^5 colony forming units per milliliter. Diluted inoculum cultures were used to inoculate 25 μL per well in 96-well broth microdilution assay plates. The final volume of each well was 100 μL and contained a β-lactam at different concentrations, a BLIcompound at 4 μg/mL concentration, the bacterial culture at an OD600 of approximately 0.001 and when necessary tetracycline at 25 μg/mL.
(§8) Plates were incubated for 18-20 hours at 37° C. with aeration (200 rpm). Following incubation, growth was confirmed visually placing plates over a viewing apparatus (stand with a mirror underneath) and then OD600 was measured using a SpectraMax 340PC384 plate reader (Molecular Devices, Sunnyvale, Calif.). Growth was defined as turbidity that could be detected with the naked eye or achieving minimum OD600 of 0.1. MIC values were defined as the lowest concentration producing no visible turbidity.

[18] = test system: Eco.2845 (OXA-15, isogenic); experiment: as above; format: cell-based, Escherichia coli; conditions: Escherichia coli, read-out: MIC of Ceftolozane, No BLI
Protocol: as §1, §2, §3, §7, §8

[19] = test system: Eco.2491 (CMY-2, clinical); experiment: as above; format: cell-based, Escherichia coli; conditions: Escherichia coli, read-out: MIC of Ceftolozane, No BLI
Protocol: as §1, §2, §3, §7, §8

[20] = test system: Panel of Isogenic and Clinical Strains Expressing β-Lactamases; experiment: Standard BLI Potentiation MIC Assay in Combination with Ceftolozane, whole panel; format: cell-based; conditions: panel of 24 strains; no BLI
Protocol: as §1, §2, §3, §7, §6

[21] = test system: Eco.2902 (Aba-ADC-33, isogenic); experiment: Standard BLI Potentiation MIC Assay in Combination with Ceftolozane; format: cell-based; conditions: Escherichia coli, read-out: MIC of Ceftolozane, No BLI
Protocol: as §1, §2, §5, §6

[22] = test system: Ecl.569 (AmpC, clinical); experiment: as above; format: cell-based, Enterobacter spp; conditions: Enterobacter, read-out: MIC of Ceftolozane, No BLI
Protocol: as §1, §2, §5, §6

[23] = test system: Pae.2757 (AmpC over-expn, clinical); experiment: as above; format: cell-based, Pseudomonas aeruginosa; conditions: Pseudomonas aeruginosa, read-out: MIC of Ceftolozane, No BLI
Protocol: as §1, §2, §3, §7, §8

[24] = test system: Pae.2885 (AmpC, clinical); experiment: as above; format: cell-based, Pseudomonas aeruginosa; conditions: Pseudomonas aeruginosa, read-out: MIC of Ceftolozane, No BLI
Protocol: as §1, §2, §3, §7, §8

[25] = test system: Pae.2863 (AmpC de-repress, clinical); experiment: as above; format: cell-based, Pseudomonas aeruginosa; conditions: Pseudomonas aeruginosa, read-out: MIC of Ceftolozane, No BLI
Protocol: as §1, §2, §3, §7, §8

## Cn1c(N)c(NC(=O)NCCN)c[n+]1CC1=C(C(=O)O)N2C(=O)[C@@H](NC(=O)/C(=N\OC(C)(C)C(=O)[O-])c3nsc(N)n3)[C@H]2SC1 [Ceftolozane]
[1]
  MIC: 16 to 32 µg/mL
[2]
  MIC: 16 to 32 µg/mL
[3]
  MIC: 16 to 32 µg/mL
[4]
  MIC: 16 to 32 µg/mL
[5]
  MIC: > 64 µg/mL
[6]
  MIC: > 64 µg/mL
[7]
  MIC: 16 to 32 µg/mL
[8]
  MIC: > 64 µg/mL
[9]
  MIC: > 64 µg/mL
[10]
  MIC: > 64 µg/mL
[11]
  MIC: > 64 µg/mL
[12]
  MIC: > 64 µg/mL
[13]
  MIC: 4 to 8 µg/mL
[14]
  MIC: > 64 µg/mL
[15]
  MIC: > 64 µg/mL
[16]
  MIC: > 64 µg/mL
[17]
  MIC: > 64 µg/mL
[18]
  MIC: > 64 µg/mL
[19]
  MIC: 16 to 32 µg/mL
[20]
  MIC50: > 64 µg/mL
  MIC90: > 64 µg/mL
[21]
  MIC: > 64 µg/mL
[22]
  MIC: > 64 µg/mL
[23]
  MIC: 4 to 8 µg/mL
[24]
  MIC: 1 to 2 µg/mL
[25]
  MIC: 4 to 8 µg/mL
